Data: patent US9573972B2, “Nurotoxic sterol glycosides” (priority 2008, dated 2017)
“Also recorded” adds a separate entry of the source.

Assays:
Type in all cases: in vivo, mouse
[1] = tested on: choline acetyl transferase (ChAT) immunoreactive cells; assay: Anti-ChAT immunofluorescence, cholinergic neuron counts; settings: for Fewer cholinergic neurons than control: SG-fed; for Cholinergic neurons, change: ventral horn lumbar spinal cord, SG-fed vs control
Experimental: Tissue-mounted slides were processed for fluorescence microscopy as follows: Sections were rinsed in coplin jars for 45 minutes at room temperature (RT) in three changes of PBS. Sections were then incubated at RT for 30 minutes in a blocking permeabilization solution made of 5% normal goat serum (NGS), 5% normal rabbit serum (NRS) or 5% BlokHen II (Ayes Labs, Inc., Tigard, Oreg.), 0.05% Triton X-100 and PBS. Subsequently, the blocking solution was tipped off and the slides were rinsed in PBS for 2 minutes. Sections were then incubated overnight in a humidified chamber at 4° C. with a PBS buffered solution that contained 1% NGS or 1% NRS, 1% bovine serum albumin (BSA) and one of the following primary antibodies: (a) rabbit anti-human/mouse ATF-3 (H-90) IgG (polyclonal, 1:500; Santa Cruz Biotechnology, Inc., Santa Cruz, Calif.), (b) anti-activated caspase-3 IgG (monoclonal, 1:250; Chemicon International, Temecula, Calif.) (see FIG. 9), (c) goat antihuman/mouse choline acetyl transferase (ChAT) IgG (polyclonal, 1:100; Chemicon International, Temecula, Calif.) (see FIG. 6), (d) rabbit anti-mouse glial fibrillary acidic protein IgG (polyclonal, 1:250; GeneTex Inc., San Antonio, Tex.) (see FIG. 7), (e) rabbit antihuman/mouse ionized calcium binding adaptor molecule 1 (IBA-1) IgG (polyclonal, 1:500; Wako Pure Chemical Industries, Ltd, Richmond, Va.), (f) mouse anti-human/mouse clone AT8 PHF-1 Tau (monoclonal, 1:200; Pierce Biotechnology Inc., Rockford, Ill.), (g) rabbit anti-human/mouse TAR DNA-binding protein 43 (TDP43) (1:100; ProteinTech Group Inc., Chicago, Ill.) (See FIG. 14), (h) chicken anti-human/mouse β-tubulin 3 (TuJ1 antigen) (polyclonal, 1:100, Ayes Labs, Inc., Tigard, Oreg.), (i) rabbit anti-mouse tyrosine hydroxylase (polyclonal, 1:500, Chemicon International, Temecula, Calif. or polyclonal 1:1000, Affinity BioReagents, Golden, Colo.) (FIG. 10), (j) rabbit anti human/mouse anti-pJunscr73 IgG (polyclonal, 1:200; Chemicon International, Temecula, Calif.), (k) rabbit anti human/mouse anti-HSP-70 IgG (polyclonal, 1:200; Chemicon International, Temecula, Calif.), or (1) rabbit anti human/mouse anti-HSP-25 IgG (polyclonal, 1:100; Chemicon International, Temecula, Calif.). In each experiment, additional slides were incubated with the primary antibody and the secondary antibody omitted or with secondary antibody and primary antibody omitted to test for nonspecific staining. Where appropriate, positive control slides (Alzheimer's disease patient entorhinal cortex, obtained from Drs. Claudia Schwab and Patrick McGeer of the Kinsmen Laboratory, University of British Columbia, Vancouver, BC, Canada) were also processed as above for comparison. […]

[2] = tested on: Ionized calcium-binding adaptor molecule-1 (microglia); assay: Anti-IBA-1 immunofluorescence, microglia counts; settings: SG-fed group over time (35 to 52 wk)
Experimental: Tissue-mounted slides were processed for fluorescence microscopy as follows: Sections were rinsed in coplin jars for 45 minutes at room temperature (RT) in three changes of PBS. Sections were then incubated at RT for 30 minutes in a blocking permeabilization solution made of 5% normal goat serum (NGS), 5% normal rabbit serum (NRS) or 5% BlokHen II (Ayes Labs, Inc., Tigard, Oreg.), 0.05% Triton X-100 and PBS. Subsequently, the blocking solution was tipped off and the slides were rinsed in PBS for 2 minutes. […]

lipid deposits = assay: Oil red O histochemistry of lipid deposits
Experimental: Tissue-mounted slides were processed to evaluate lipid distribution with light microscopy with a protocol adapted from Dr. Roy Ellis (IMVS Division of Pathology, The Queen Elizabeth Hospital, Woodville, South Australia). First, an oil red O stock solution was prepared 2 hours prior to execution of the histochemical procedures. The oil red O stock stain solution was made by mixing oil red O (0.5 g, Sigma-Aldrich, Oakville, ON, Canada) and isopropanol (100 mL, Fisher Scientific, Nepean, ON, Canada) over a 40° C. water bath. Immediately prior to beginning the oil red O histochemical procedures, the oil red O working solution was made by combining 20 mL of distilled water for every 30 mL of oil red O stock stain solution. […] Slide-mounted sections were rinsed in coplin jars for 15 minutes at RT in three changes of PBS. Sections were then rinsed at RT with 60% isopropanol for 5 minutes. The spinal cord sections were then stained with a freshly prepared working solution of oil red O for 20 minutes and then rinsed with 60% isopropanol. Nuclear counterstaining was achieved by staining the sections with haematoxylin (haematoxylin, 7211, Richard Allan Scientific, Kalamazoo, Mich., USA) for 1 minute. Finally, the sections were rinsed with distilled water, dried under a fume hood and cover-slipped with Entellen (Merck, Darmstadt, Germany).
The numbers of immunoreactive somata or inclusions were counted across the ventral horn of the spinal cord, across brain hemispheres, or per dorsal or ventral root with the 40× objective lens in a 600 μm/600 μm area within region perimeters defined by a mouse brain atlas (2001). For each animal, eight cross-sections per spinal cord or brain region were studied. An average of both the right and left ventral horn for each of the eight cross sections was generated giving a final averaged number for each animal in each of the spinal cord areas. For quantification of the level of mitochondrial activity (cytochrome c oxidase labelling) in the lumbar spinal cord or tyrosine hydroxylase immunoreactivity in the substantia nigra pars compacta and striatal sections, images captured using the Motic B5 Professional Series 3.0 microscope (Motic Instruments Inc., Richmond, ON) and analyzed using Motic B5 Professional, Motic Images Advanced 3.0 (Motic Instruments Inc., Richmond, ON) were scanned into a TIFF format file and analysed using the NIH Image J 1.37 software to measure density levels of antibody labelling. Eight to 12 sections from each mouse per region of interest were included.

## CC[C@H](/C=C/[C@@H](C)[C@H]1CC[C@H]2[C@@H]3CC=C4C[C@@H](O[C@@H]5O[C@H](CO)[C@@H](O)[C@H](O)[C@H]5O)CC[C@]4(C)[C@H]3CC[C@]12C)C(C)C [SG, Stigmasterol β-D-Glucopyranoside]
[1]; 35 weeks
  Fewer cholinergic neurons than control: 18%
[1]; 52 weeks
  Fewer cholinergic neurons than control: 32%
[1]; Time-point 1 (35 wk)
  Cholinergic neurons, change: Cholinergic neurons (−18%)
[1]; Time-point 2 (52 wk)
  Cholinergic neurons, change: Cholinergic neurons (−32%)
[2]
  Anti-IBA-1 immunoreactive cells over time: Anti-IBA-1 immunoreactive cells (SG-fed group over time) (ns)
Lipid deposits; SG-fed over time (35 to 52 wk)
  Lipid deposits DR over time: did not show time-dependent effects; also recorded: SG-fed DR over time: ns, p = 0.8062
  Lipid deposits Lsc over time: did not experience an accumulation of deposits over time; also recorded: SG-fed Lsc over time: ns, p = 0.4864
  Lipid deposits VR over time: did not show time-dependent effects; also recorded: SG-fed VR over time: ns, p = 0.5478
Lipid deposits; SG-fed vs control, 35 weeks
  Lipids in dorsal roots: not significant
  Lipids in ventral spinal roots, change: +10%
Lipid deposits; SG-fed vs control, 52 weeks
  Lipids in dorsal root: statistically significant inter-group differences were not found
  Lipids in ventral root: statistically significant inter-group differences were not found
Lipid deposits; lumbar spinal cord and ventral roots, SG-fed vs control
  Number and size of lipid deposits: greater
